The nature of series [1]: Colchicine plasma concentration in rabbits (estimated). In kind it is in vivo. The settings on record: rabbit 0.2 mg/kg/day vs human 1 mg/day. The protocol: (§1) Bochner et al., Handbook of Clinical Pharmacology, Little, Brown and Co., Boston (1983), pp. 151-152. […] Thus, the concentration of colchicine in rabbits shown to prevent restenosis was 14 times the concentration achieved in the clinical trial. The compounds of invention can be prepared in the above-described compatible binding media up to 100 μM, i.e., 1400 times the concentration shown to be effective in the animal study, and delivered directly to the arterial wall by catheter during an angioplasty procedure.

The next series relates to A10 cells. Kind of series: Antiproliferative activity on A10 cells after one 10 minute application. The note with it: for Cell count: 10 minute application; for activity at 10 µM: Rattus norvegicus, read-out: % of Vehicle Maximum. In kind it is cell-based, rat. The method, then: To determine the antiproliferative action of the compounds of invention, in vitro studies were performed using A10 cells, a clonal cell line originally derived from the thoracic aorta of embryonic rats, that proliferate as myoblasts and develop into cells which phenotypically resemble smooth muscle cells (B. Kimes and B. Brandt, Exptl. Cell Res. 98:349 (1976). Typically, twelve-well plates were seeded with 2500-10,000 A10 cells/cm^2 in Dulbecco's Modified Eagles Medium (DMEM) with 10% fetal calf serum (FCS) and allowed to adhere and stabilize for 24 hours at 37° C. Test substances were then prepared in the required concentrations in appropriate cell binding media and, after aspirating the plating medium, applied to the individual wells at 37° C. for a period of only 10 minutes. The treatments were then aspirated, the wells washed 4 times with non-treatment containing medium and then placed in non-treatment containing DMEM with 10% FCS for the duration of the study. At various times after treatment application, triplicate wells were aspirated, the aspirate saved, and the wells treated with 0.25 ml of 0.25% trypsin to release the adherent cells. The enzymatic action of trypsin on the cells was stopped by addition of excess protein (1.75 ml DMEM+10% FCS), the aspirate returned to the wells, and an aliquot of the resultant cell suspension counted in a Coulter Counter (Model ZM with Sampling Stand II). Cell count was normalized to cells per square centimeter of growing area (surface area of well bottom).

The conditions of series [2]: 1 mg/day human; cited from earlier work.
Another series has as its system restenosis. The settings on record: patients; limiting toxicity; cited from earlier work.
A short description of series [3]: Colchicine blood/plasma level in humans. Format: in vivo. The note with it: 1 mg/day human; read-out: Peak plasma concentration. The method, then:
as §1

The subject of the next series is membrane ghosts. The series can be described thus: Membrane binding stability (MBS) assay in membrane ghosts with 5% albumin. The note with it: 24 hours; for MBS (% of max.): Table II; for MBS: Table III. The source says:
Determination of Membrane Binding Stability
For example, very stable binding to membranes might be required for applications such as delivery of therapeutic radionuclides to tumor sites, as loss of compound could lead to the radionuclide producing its toxic effect at non-tumor sites. On the other hand, more rapid loss of compound from biomembranes may be desirable for application involving controlled delivery rates of therapeutic agents. Accordingly, there is described hereinbelow an assay for determining MBS under conditions approximating those found in vivo.
In carrying out this assay, approximately physiological concentrations of serum albumin (5%) are used. […] To better approximate the effects of large fluid volumes to which labelled cells are exposed in vivo, the assay for MBS is carried out by suspending a decreasing number of labeled membrane ghosts in a fixed volume of albumin-containing saline. At 24 hours, the total amount of label present is determined by sampling the well mixed suspension; subsequently, the membrane ghosts are pelleted by centrifugation and the amount of label released into the supernatant is determined and expressed as a percent of total label. Percent retention is plotted against number of ghosts per ml. of suspension, and MBS is determined as the area under the curve between 5×10^7 ghosts/ml. and 4×10^8 ghosts/ml.

Another series deals with rabbit erythrocytes. The settings on record: iv.
Series [4] relates to red blood cell ghosts (plasma membrane). The series can be described thus: Membrane retention coefficient (MRC) in red blood cell ghosts. In kind it is binding. The settings on record: 24 hr; Table II. The method, then:
Determination of Membrane Retention Coefficient
The membrane retention coefficient (MRC) provides information regarding how well a given compound is retained in the plasma membrane of a cell and is determined as described below.
Generation of red blood cell ghosts for use as a model membrane is achieved by centrifuging whole blood at 300×g for 15 minutes, removal of the plasma and resuspension of the cell pellet in 0.83% (w/v) ammonium chloride. The ghosts are pelleted from the ammonium chloride by centrifuging at 10,000×g for 10 minutes. This ammonium chloride washing procedure is repeated a minimum of five times to insure that complete release of hemoglobin from the cells has occured. The ghosts are labeled with the compound in question at a concentration allowing for detection of the labeled ghosts by instrumental analysis or fluorescent microscopic methods, and at a concentration similar to those that would be used to label cells for a specific application as described above. For the determinations hereinbelow stock solutions of the compounds in question were prepared in ethanol at a molar concentration of 2×10^-3, and working dilutions of the compounds were prepared in iso-osmotic sucrose (52 g/500 ml distilled water). After incubation of the ghosts at an approximate concentration of 1×10^9 ghosts/ml in the working dilutions of the compounds for 10 minutes, the samples were centrifuged at 10,000×g to pellet the ghosts and the staining solution was aspirated from the samples. The labeled ghosts were resuspended in 1 ml of phosphate buffered saline solution containing 10% fetal bovine serum (PBS-FBS). Triplicate 20 ul aliquots were removed from each sample for the determination of the amount of total compound present. The samples were centrifuged as described above and triplicate 20 ul aliquots were removed from the supernatant for quantitative determination of amount of unbound compound present.
After sampling, the supernatant was aspirated and the red cell ghost pellet was resuspended in 1.0 ml of the PBS-FBS, which was once again sampled as described above. This procedure was repeated at least six times, allowing for detection of rapidly released compounds and was monitored after times equal to or greater than 24 hours to allow for the detection of more slowly released compounds. For the determination of the amount of compound present in each sample, the 20 ul aliquots were extracted into 3.0 ml of n-butanol by shaking. The samples were centrifuged at 3000×g to remove membrane debris and the butanol fractions were assayed for compound concentration. Fluorescent compounds are assayed in this manner using peak excitation and emission wave lengths for the particular compounds being assayed to determine the fluorescence units for each sample.
The determination of the amount of compound present in each sample as described above allows for the calculation of the MRC for each washing or fixed time point. The value is obtained by the following formula: […]
wherein CT represents the amount of compound present (in units determined by the method used to assay the compound) in the total sample and CS represents the amount of compound present in the supernatant sample for that particular time point. The comparison of the MRC values defines criteria for identification of the compounds of this invention, these criteria being: 1) the MRC values determined for each washing steps should have a value of at least about 90 and 2) the percent difference between MRC values over at least a 24 hour time period should be less than about 10%. [drawing 14]
The data provided in Table I below are the results from one experiment and serve as an example of the MRC determination. […]

Series [5] can be described thus: In vivo loss of dye from labeled, reinjected erythrocytes. The note with it: rabbit, iv.
Source text: (§2) *Half life for loss of dye from rabbit erythrocytes after labeling and

Where two headings read alike, the source gives them in different places. A value given as a limit tells only on which side of the number the result lay.

Source text for rabbit erythrocytes: as §2

Turning to `COc1cc2c(c(OC)c1OC)-c1ccc(OC)c(=O)cc1[C@@H](NC(C)=O)CC2` [Colchicine, colchicine], in series [1], the “Colchicine concentration in rabbits vs clinical trial” value is listed as 14 times. The Cell count in the series on A10 cells (10 μM, day 0) is reported as 3006.53 cells per square centimeter; in the series on A10 cells (10 μM, day 1), 3778.07 cells per square centimeter; in the series with A10 cells (10 μM, day 2), 4249.35 cells per square centimeter; in the series with A10 cells (10 μM, day 3) it was 7785.90 cells per square centimeter; in the series with A10 cells (10 μM, day 6), 57626.63 cells per square centimeter; in the series with A10 cells (10 μM, day 7), 118127.94 cells per square centimeter. In the series with A10 cells (10 μM, day 0, 0 min), the “% of Vehicle Maximum” value is 1.44%. Besides, the activity at 10 µM came out at 1.81% in the series with A10 cells (A10, 24 h, 10 μM, day 1); 2.04% with A10 cells (A10, 48 h, 10 μM, day 2); 3.73% with A10 cells (A10, 72 h, 10 μM, day 3); 27.6% in the series with A10 cells (A10, 144 h, 10 μM, day 6); 56.6% with A10 cells (A10, 168 h, 10 μM, day 7). In the series with A10 cells (day 7), the “Cell density relative to vehicle-treated cells” value is listed as “only one-half the cell density of vehicle-treated cells”. Further, the “Increase in cell number over that with the colchicine conjugate” value in the series with A10 cells (day 7) is “approximately 10 fold”. For the same compound, the Peak plasma concentration in [2] is 2 ng/mL. The Maximum tolerated dose in the series on restenosis is not above 1 mg/day. In series [3], the Cmax turned out to be 5 nM.

For the compound `CCCCCCCCCCCCCC[N+]1=C(C=CC=C2N(CCC)c3ccccc3C2(C)C)C(C)(C)c2ccccc21` [Q], in the series on membrane ghosts, the “MBS (% of max.)” value is recorded as 41 ± 5.0 % of max and the MBS is reported as 42 ± 5.7%. For the same compound, the “In vivo membrane half-life” value with rabbit erythrocytes came to 10 ± 0.7 days. For the same compound, the “MRC# (at 24 hr.)” value in series [4] was determined as 85 ± 0.6.

Broadly, the half-life is the time needed for the level to fall by half in the phase considered. Read a low half-life as fast loss. Take `CCCCCCCCCCCCCCN1C(=CC=CC2=[N+](CCCCCCCCCCCCCC)c3ccccc3C2(C)C)C(C)(C)c2ccccc21` [R]: the half-life in series [5] is 36 days. For the same compound, in the series with membrane ghosts, the “MBS (% of max.)” value was 55 ± 1.7 % of max and the MBS is on record as 55 ± 1.6%. For the same compound, in series [4], the “MRC# (at 24 hr.)” value was 87 ± 0.6.

`CCCCCCCCCCCCCCCCN1C(=CC=CC2=[N+](CCCCCCCCCCCCCCCC)c3ccccc3C2(C)C)C(C)(C)c2ccccc21` [S] showed a half-life in series [5] of 58 days. The “MBS (% of max.)” value with membrane ghosts is 79 ± 3.7 % of max. Also, the “MRC# (at 24 hr.)” value in series [4] was determined as 87 ± 1.2.
